Experimental data from patent publication US8802597B2, “Herbicidal pyrimidines” (E I du Pont de Nemours and Company, priority 2003, dated 2014).

Legend:
Test in all cases: Test A pre/postemergence
Type in all cases: in vivo
[1] = system: barnyardgrass (Echinochloa crus-galli)
Experimental: (§1) Seeds of barnyardgrass (Echinochloa crus-galli), crabgrass (Digitaria sanguinalis), giant foxtail (Setaria faberi), morningglory (Ipomoea spp.), redroot pigweed (Amaranthus retroflexus) and velvetleaf (Abutilon theophrasti) were planted into a blend of loam soil and sand and treated preemergence with a directed soil spray using test chemicals formulated in a non-phytotoxic solvent mixture which included a surfactant. At the same time these species were also treated with postemergence applications of test chemicals formulated in the same manner.
(§2) Plants ranged in height from 2 to 10 cm and were in the 1- to 2-leaf stage for the postemergence treatment. Treated plants and untreated controls were maintained in a greenhouse for approximately ten days, after which time all treated plants were compared to untreated controls and visually evaluated for injury. Plant response ratings, summarized in Table A, are based on a 0 to 100 scale where 0 is no effect and 100 is complete control. A dash (-) response means no test results.

[2] = system: crabgrass (Digitaria sanguinalis)
Experimental: as §1, §2

[3] = system: giant foxtail (Setaria faberi)
Experimental: as §1, §2

[4] = system: morningglory (Ipomoea spp.)
Experimental: as §1, §2

[5] = system: redroot pigweed (Amaranthus retroflexus)
Experimental: as §1, §2

[6] = system: velvetleaf (Abutilon theophrasti)
Experimental: as §1, §2

[7] = Postemergence, 125 g ai/ha, 0 to 100 scale (0 no effect, 100 complete control)
[8] = Postemergence, 500 g ai/ha, 0 to 100 scale (0 no effect, 100 complete control)
[9] = Preemergence, 125 g ai/ha, 0 to 100 scale where 0 is no effect and 100 is complete control, approximately ten days
[10] = Preemergence, 500 g ai/ha, 0 to 100 scale where 0 is no effect and 100 is complete control, approximately ten days

SMILES | Plant response rating, Barnyardgrass [1, 7] | Plant response rating, Barnyardgrass [1, 8] | Plant response rating, Barnyardgrass [1, 9] | Plant response rating, Barnyardgrass [1, 10] | Plant response rating, Crabgrass [2, 7] | Plant response rating, Crabgrass [2, 8] | Plant response rating, Crabgrass [2, 9] | Plant response rating, Crabgrass [2, 10] | Plant response rating, Foxtail, Giant [3, 7] | Plant response rating, Foxtail, Giant [3, 8] | Plant response rating, Foxtail, Giant [3, 9] | Plant response rating, Foxtail, Giant [3, 10] | Plant response rating, Morningglory [4, 7] | Plant response rating, Morningglory [4, 8] | Plant response rating, Morningglory [4, 9] | Plant response rating, Morningglory [4, 10] | Plant response rating, Pigweed [5, 7] | Plant response rating, Pigweed [5, 8] | Plant response rating, Pigweed [5, 9] | Plant response rating, Pigweed [5, 10] | further results
COC(=O)COc1nc(C2CC2)nc(N)c1Cl [Compound 112] | 0 | 0 | 0 | 10 | 0 | 0 | 0 | 10 | 0 | 0 | 0 | 0 | 55 | 50 | 0 | 10 | 20 | 40 | 10 | 30 | Plant response rating, Velvetleaf [6, 7]: 20; Plant response rating, Velvetleaf [6, 8]: 35; Plant response rating, Velvetleaf [6, 9]: 0; Plant response rating, Velvetleaf [6, 10]: 10
CCOC(=O)COc1nc(-c2ccc(Cl)cc2)nc(N)c1Cl [Compound 114] | 0 | 0 | 0 | 0 | 0 | 0 | 0 | 0 | 0 | 0 | 0 | 0 | 40 | 55 | 0 | 0 | 45 | 55 | 0 | 0 | Plant response rating, Velvetleaf [6, 7]: 0; Plant response rating, Velvetleaf [6, 8]: 5; Plant response rating, Velvetleaf [6, 9]: 0; Plant response rating, Velvetleaf [6, 10]: 0
CCOC(=O)COc1nc(C2CC2)nc(N)c1Cl [Compound 115] | 0 | 0 | 0 | 20 | 0 | 0 | 0 | 10 | 0 | 0 | 0 | 0 | 35 | 60 | 25 | 35 | 10 | 45 | 30 | 40 | Plant response rating, Velvetleaf [6, 7]: 30; Plant response rating, Velvetleaf [6, 8]: 40; Plant response rating, Velvetleaf [6, 9]: 5; Plant response rating, Velvetleaf [6, 10]: 10
Nc1nc(C2CC2)nc(OCC(=O)[O-])c1Cl.[Na+] [Compound 116] | 0 | 0 | 10 | 20 | 0 | 0 | 0 | 10 | 0 | 0 | 0 | 0 | 40 | 60 | 30 | 50 | 20 | 35 | 30 | 50 | Plant response rating, Velvetleaf [6, 7]: 15; Plant response rating, Velvetleaf [6, 8]: 40; Plant response rating, Velvetleaf [6, 9]: 0; Plant response rating, Velvetleaf [6, 10]: 15
COC(=O)COc1nc(-c2ccc(Cl)cc2)nc(N)c1Cl [Compound 119] | 0 | 5 | 0 | 10 | 0 | 0 | 0 | 0 | 0 | 0 | 0 | 0 | 40 | 35 | 0 | 0 | 25 | 45 | 0 | 0 | Plant response rating, Velvetleaf [6, 7]: 0; Plant response rating, Velvetleaf [6, 8]: 10; Plant response rating, Velvetleaf [6, 9]: 0; Plant response rating, Velvetleaf [6, 10]: 0
CCOC(=O)Cc1nc(-c2ccc(Cl)cc2)nc(N)c1Cl [Compound 120] | 10 | 40 | 5 | 15 | 0 | 5 | 0 | 0 | 0 | 0 | 0 | 0 | 25 | 55 | 0 | 0 | 20 | 35 | 0 | 0 | Plant response rating, Velvetleaf [6, 7]: 50; Plant response rating, Velvetleaf [6, 8]: 65; Plant response rating, Velvetleaf [6, 9]: 0; Plant response rating, Velvetleaf [6, 10]: 0
COC(=O)c1nc(-c2ccc(SC)cc2)nc(N)c1Cl [Compound 121] | 0 | 5 | 0 | 0 | 0 | 0 | 0 | 0 | 0 | 0 | 0 | 0 | 0 | 10 | 0 | 0 | 0 | 0 | 0 | 0 | Plant response rating, Velvetleaf [6, 7]: 0; Plant response rating, Velvetleaf [6, 8]: 0; Plant response rating, Velvetleaf [6, 9]: 0; Plant response rating, Velvetleaf [6, 10]: 0
COC(=O)c1nc(-c2ccc(S(C)(=O)=O)cc2)nc(N)c1Cl [Compound 122] | 0 | 0 | 0 | 0 | 0 | 0 | 0 | 0 | 0 | 0 | 0 | 0 | 0 | 0 | 0 | 0 | 0 | 0 | 0 | 0 | Plant response rating, Velvetleaf [6, 7]: 0; Plant response rating, Velvetleaf [6, 8]: 0; Plant response rating, Velvetleaf [6, 9]: 0; Plant response rating, Velvetleaf [6, 10]: 0
COC(=O)c1nc(-c2ccc([S+](C)[O-])cc2)nc(N)c1Cl (stereo not drawn) [Compound 123] | 0 | 10 | 0 | 0 | 0 | 0 | 0 | 0 | 0 | 10 | 0 | 0 | 0 | 20 | 0 | 0 | 0 | 0 | 0 | 0 | Plant response rating, Velvetleaf [6, 7]: 0; Plant response rating, Velvetleaf [6, 8]: 0; Plant response rating, Velvetleaf [6, 9]: 0; Plant response rating, Velvetleaf [6, 10]: 0
